Results on one molecule are retold here after publication PMC5294914 (Cell host & microbe, 2016).

The target of this assay is FmlH (Escherichia coli, UniProt A0A0H2V7F6). Briefly: solution binding study.

pKd: −log10 of the molar value.

In the case of `OC[C@H]1OC(O)[C@H](O)[C@@H](O)[C@H]1O` (stereo partly drawn) [D-Gal], the negative logarithm of the Kd (pKd) was 3.20.
